Key:
Type II 5α-reductase = molecular target: T1, Type II 5α-reductase (Homo sapiens, UniProt P31213); experiment: Inhibition of type II 5α-reductase (14C-testosterone to dihydrotestosterone, transfected COS7 cell lysate); assay type: biochemical
T1 construct: made in house; host or cells: COS7 cells (ATCC, CRL 1651), transient transfection with pSG5; 100,000×g pellet of the lysate
T1 sequence (P31213 1-254): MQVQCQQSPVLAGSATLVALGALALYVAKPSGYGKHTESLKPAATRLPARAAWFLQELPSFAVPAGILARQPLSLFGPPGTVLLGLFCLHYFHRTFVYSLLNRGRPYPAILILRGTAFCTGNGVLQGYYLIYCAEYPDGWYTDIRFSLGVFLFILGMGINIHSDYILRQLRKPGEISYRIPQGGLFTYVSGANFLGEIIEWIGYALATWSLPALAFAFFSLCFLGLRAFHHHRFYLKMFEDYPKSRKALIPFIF
From the text: (§1) The coding sequences (complementary deoxyribonucleic acids: cDNAs) of 5α-reductase I and of 5α-reductase II were cloned into the eukaryotic expression vector pSG5 (Stratagene). The enzymes were overexpressed after transient transfection of COS7 cells (ATCC, CRL 1651). The 5α-reductase I and 5α-reductase II cDNAs were obtained by reverse transcription and polymerase chain reaction (PCR) using specific primers from human testicle total RNA (marketed by Clontech).
The primers (SEQ ID NOS.: 3 and 4) used to obtain the 5α-reductase II cDNA were:
+strand: 5′GCGATGCAGGTTCAGTG 3′,
−strand: 5′ATTGTGGGAGCTCTGCT 3′.
(§2) The 5α-reductase I cDNA obtained was inserted, by standard genetic engineering techniques, into the BamHI site of pSG5 and the 5α-reductase II cDNA obtained was inserted into the EcoRI site (see Maniatis et al., Molecular Cloning, Cold Spring Harbor, 1989). […]
(§3) The reaction mixtures were then deposited directly on a silica plate (HPTLC, 60F 254, Merck) and subjected to chromatography (solvent=10% diethyl ether, 90% dichloromethane). They were then analyzed by digital autoradiography (Digital Autoradiography, Berthold).
(§4) The inhibition of the activity of the isoenzymes was measured by calculating the percentage of dihydrotestosterone formed from ^14C-testosterone relative to an untreated control.

Type I 5α-reductase = molecular target: T2, Type I 5α-reductase (Homo sapiens, UniProt P18405); experiment: Inhibition of type I 5α-reductase (14C-testosterone to dihydrotestosterone, transfected COS7 cell lysate); assay type: biochemical
T2 construct: made in house; host or cells: COS7 cells (ATCC, CRL 1651), transient transfection with pSG5; 100,000×g pellet of the lysate
T2 sequence (P18405 1-259): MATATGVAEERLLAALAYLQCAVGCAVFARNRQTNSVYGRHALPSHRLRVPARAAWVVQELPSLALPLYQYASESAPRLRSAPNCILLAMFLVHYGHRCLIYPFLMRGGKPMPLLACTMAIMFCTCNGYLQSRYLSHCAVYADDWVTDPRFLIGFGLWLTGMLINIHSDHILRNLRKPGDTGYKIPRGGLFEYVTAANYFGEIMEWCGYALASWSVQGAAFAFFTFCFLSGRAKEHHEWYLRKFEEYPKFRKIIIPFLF
From the text: as §1
The primers (SEQ ID NOS.: 1 and 2) used to obtain the 5α-reductase I cDNA were:
+strand: 5′[…] 3′,
−strand: 5′[…] 3′.
as §2, §3, §4

IC50 (Type II 5α-reductase; 40 mM pH 5.5 citrate buffer, 1 nM 14C-testosterone, 5 mM NADPH, 50 minutes at 37° C.): > 50 µM | inhibitory effect on the 5α-reductases (type II) (Type II 5α-reductase; statement in words): no inhibitory effect | IC50 (Type I 5α-reductase; 40 mM pH 6.5 phosphate buffer, 1 nM 14C-testosterone, 5 mM NADPH, 50 minutes at 37° C.): 50 µM | inhibitory effect on the 5α-reductases (type I) (Type I 5α-reductase; statement in words): no inhibitory effect
Compound: COc1cc(OC)c2cc(C(=O)O)[nH]c2c1 [4,6-dimethoxyindole-2-carboxylic acid]
